The record followed here is ChEMBL document CHEMBL2406943, “ABCB1 Structural Models, Molecular Docking, and Synthesis of New Oxadiazolothiazin-3-one Inhibitors” (ACS Med Chem Lett, 2013).

Molecules are shown by their SMILES.

The data set has as its target MDR1 (ABCB1, P-glycoprotein) (Homo sapiens, UniProt P08183). The experiment in a line: Inhibition of MDR1 in multidrug resistant human A2780/DX3 cells assessed as accumulation of doxorubicin at 5 times compound concentration that giving 5% antiproliferative activity after 4 hrs by cytofluorimetric assay relative to (Z)-8-(4-chlorophenyl)-5-methyl-8-(pent-2-enyl-oxy)-[1,2,4]oxadiazolo[3,4-c][1,4]thiazin-3(8H)-one. Particulars: probe doxorubicin. The data set is classed as cell-based, A2780 ADR.

Chain of MDR1 (ABCB1, P-glycoprotein) (P08183 whole entry): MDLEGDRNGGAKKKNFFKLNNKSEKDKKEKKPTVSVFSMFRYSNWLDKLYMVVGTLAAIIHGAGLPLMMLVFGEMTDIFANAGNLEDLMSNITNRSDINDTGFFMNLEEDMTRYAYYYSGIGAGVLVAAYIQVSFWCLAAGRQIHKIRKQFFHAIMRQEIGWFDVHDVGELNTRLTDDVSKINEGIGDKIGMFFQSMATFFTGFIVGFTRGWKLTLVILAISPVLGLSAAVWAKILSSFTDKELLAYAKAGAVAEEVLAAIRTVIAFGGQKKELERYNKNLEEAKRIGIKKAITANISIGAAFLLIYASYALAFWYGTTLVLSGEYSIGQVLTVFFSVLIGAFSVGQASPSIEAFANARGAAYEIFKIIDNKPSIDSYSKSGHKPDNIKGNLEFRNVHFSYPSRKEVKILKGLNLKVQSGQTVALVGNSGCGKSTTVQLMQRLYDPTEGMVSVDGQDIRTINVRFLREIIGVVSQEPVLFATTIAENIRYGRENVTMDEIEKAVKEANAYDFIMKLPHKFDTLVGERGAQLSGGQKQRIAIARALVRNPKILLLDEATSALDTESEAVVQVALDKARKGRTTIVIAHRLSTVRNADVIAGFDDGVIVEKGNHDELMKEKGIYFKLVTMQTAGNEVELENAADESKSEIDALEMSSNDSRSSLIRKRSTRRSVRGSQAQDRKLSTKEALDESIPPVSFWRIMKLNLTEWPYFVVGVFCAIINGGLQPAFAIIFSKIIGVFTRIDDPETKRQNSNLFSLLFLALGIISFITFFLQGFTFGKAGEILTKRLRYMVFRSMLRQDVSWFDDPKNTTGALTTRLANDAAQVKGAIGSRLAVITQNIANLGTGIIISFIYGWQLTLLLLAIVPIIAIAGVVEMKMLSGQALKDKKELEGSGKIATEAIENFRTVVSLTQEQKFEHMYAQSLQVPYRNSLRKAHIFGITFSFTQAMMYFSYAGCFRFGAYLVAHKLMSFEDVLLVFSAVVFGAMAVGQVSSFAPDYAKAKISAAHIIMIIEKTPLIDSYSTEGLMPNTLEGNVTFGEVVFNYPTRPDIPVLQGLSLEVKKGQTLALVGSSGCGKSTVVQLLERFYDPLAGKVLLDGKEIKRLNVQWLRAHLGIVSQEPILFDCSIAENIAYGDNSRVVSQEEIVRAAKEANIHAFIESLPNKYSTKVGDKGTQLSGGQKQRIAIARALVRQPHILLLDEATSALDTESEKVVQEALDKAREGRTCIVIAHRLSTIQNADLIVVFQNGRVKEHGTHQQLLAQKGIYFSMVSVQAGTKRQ

With `CCCCCCOC1(c2ccc(Br)cc2)SC=C(C)n2c1noc2=O` (racemic), the inhibition (usually the drop in the measured response relative to a control, in per cent) at 4 h is 72%.
With `CCC/C=C\COC1(c2ccc(Cl)cc2)SC=C(C)n2c1noc2=O` (racemic) the figure was 131%.
Turning to `CCC/C=C/COC1(c2ccc(Cl)cc2)SC=C(C)n2c1noc2=O` (racemic), the inhibition at 4 h came to 109%.
With `CC/C=C/COC1(c2ccc(Cl)cc2)SC=C(C)n2c1noc2=O` (racemic) the figure was 35%; with `CCCCCCOC1(c2ccc(Cl)cc2)SC=C(C)n2c1noc2=O` (racemic), 18%.
The figure for `CC/C=C\COC1(c2ccc(Br)cc2)SC=C(C)n2c1noc2=O` (racemic) is 139%; for `CC/C=C\CO[C@]1(c2ccc(Cl)cc2)SC=C(C)n2c1noc2=O` it is 48%; for `CC/C=C\CO[C@@]1(c2ccc(Cl)cc2)SC=C(C)n2c1noc2=O` it is 136%.
